# Measurements from patent publication US20040224878A1, “Fertilization of aged oocytes” (priority 2000, published 2004).
# How the values were obtained:
# aged oocytes = test: Cell cycle progression (GV, GVBD, PB) of young and aged oocytes after 22 h culture; format: cell-based, CBA/Ca mouse; details: 10 μM FF-MAS in Hx-medium, aged (35-38 week old) vs young (5-6 weeks old) oocytes, FIG. 1
# Protocol: The CBA/Ca mouse provides a model system for studies on the maternal age effect of oocytes (7). This model is characterised by its relatively limited pool of follicles with low number of aged oocytes in the sexually mature adult female, similar to the human. All the following studies were carried out in the CBA/Ca mice. Animals were kept under controlled lighting and temperature.
# Oocytes from young (5-6 weeks old) and aged (35-38 week old) CBA/Ca mice in the diestrus stage of the cycle were investigated. Oocytes were isolated in Hx-medium (see below) under a stereo microscope by manual rupture of the follicles using a pair of 27 gauge needles. […]
# (a) By the end of the culture period cell cycle progression was analysed by counting the number of oocytes with germinal vesicle (GV) or germinal vesicle breakdown (GVB) and those with polar body (PB) by using a stereo microscope or an inverted microscope with differential interference contrast equipment. The percentage of oocytes with GV, GVBD and PB per total number of oocytes, respectively, was calculated in the 4 treatment groups of young and aged oocytes, respectively.
# [1] = test system: aged metaphase 11 oocytes; test: Cytogenetic analysis (chromosome count, hyperploidy) of cultured oocytes; format: cell-based, CBA/Ca mouse; details: 10 μM FF-MAS given alone or in combination with Hx, 22 hours culture, FIG. 2
# Protocol: The CBA/Ca mouse provides a model system for studies on the maternal age effect of oocytes (7). This model is characterised by its relatively limited pool of follicles with low number of aged oocytes in the sexually mature adult female, similar to the human. All the following studies were carried out in the CBA/Ca mice. Animals were kept under controlled lighting and temperature. Oocytes from young (5-6 weeks old) and aged (35-38 week old) CBA/Ca mice in the diestrus stage of the cycle were investigated. Oocytes were isolated in Hx-medium (see below) under a stereo microscope by manual rupture of the follicles using a pair of 27 gauge needles. Spherical, naked oocytes (NO) displaying an intact germinal vesicle (GV) were placed in a-minimum essential medium (x-MEM without ribonucleosides, Gibco BRL, Cat. No. 22561) supplemented with 3 mM hypoxanthine (Sigma Cat. No. H-9377), 8 mg/ml Human Serum Albumin (HSA, State Serum Institute, Denmark), 0.23 mM pyruvate (Sigma, Cat. No. S-8636), 2 mM glutamine (Flow Cat. No. 16-801), 100 IU/ml penicillin and 100 μg/ml streptomycin (Flow, Cat No. 16-700). This medium was designated Hx-medium. […] The number of chromosomes was counted in each oocyte. […]
# oocytes = details: mouse; cited from earlier work
# human oocytes = details: concentrations around those observed in vivo, culture medium of human oocytes during IVF; cited from earlier work
# [2] = test system: mouse cumulus-oocyte complex (COC); details: addition to the culture medium of mouse COC; cited from earlier work
compound,measurement,setting,value
"CC(C)=CCC[C@@H](C)[C@H]1CC=C2C3=C(CC[C@@]21C)[C@@]1(C)CC[C@H](O)C(C)(C)[C@@H]1CC3 [FF-MAS, 4,4-dimethyl-5α-cholesta-8,14,24-triene-31-ol]",maturation to metaphase 11 (cell cycle progression),aged oocytes,more successful to mature to metaphase 11 than young oocytes
same,"numerical aberration rate, e.g. hyperploidy",[1],reduces numerical aberration rate
same,nuclear (meiotic) and cytoplasmic maturation,oocytes,induces nuclear (meiotic) and cytoplasmic maturation
"EGF: growth factor enhancing endogenous production of MAS in the cumulus enclosed oocyte (NSDSECPLSHDGYCLHDGVCMYIEALDKYACNCVVGYIGERCQYRDLKWWELR; UniProt P01133 971-1023, looked up)",implantation rates of the retrieved oocytes,human oocytes,significant improved implantation rates
Cl.Cl.Clc1ccccc1CNCC1CCC(CNCc2ccccc2Cl)CC1 (centres unmarked) [AY9944],accumulation of FF-MAS,[2],has the capacity to induce accumulation of FF-MAS
